Literature values in patent US9579280B2, “Controlled release delivery system for nasal applications and method of treatment” (MATTERN PHARMA AG, priority 2003, dated 2017).
Where two headings read alike, the source gives them in different places.

Tests used:
[1] = relative to water
[2] = biological target: T1, sex hormone binding globulin (SHBG) (Homo sapiens, UniProt P04278)
T1 sequence (P04278 30-402): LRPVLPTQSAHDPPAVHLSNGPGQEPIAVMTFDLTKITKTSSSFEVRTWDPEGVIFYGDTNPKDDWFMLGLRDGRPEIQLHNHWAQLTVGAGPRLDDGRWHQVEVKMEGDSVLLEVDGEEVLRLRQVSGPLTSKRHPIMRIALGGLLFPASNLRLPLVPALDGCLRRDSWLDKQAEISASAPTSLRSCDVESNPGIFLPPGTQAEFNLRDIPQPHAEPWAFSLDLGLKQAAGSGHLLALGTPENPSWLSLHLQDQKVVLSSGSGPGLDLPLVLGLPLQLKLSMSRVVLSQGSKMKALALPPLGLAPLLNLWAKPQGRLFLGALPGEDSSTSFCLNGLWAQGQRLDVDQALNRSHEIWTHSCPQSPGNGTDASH

[3] = nasal
female sexual response = settings: for sexual arousal: sublingual or single vaginal dose

C[C@]12CC[C@H]3[C@@H](CCC4=CC(=O)CC[C@@]43C)[C@@H]1CC[C@@H]2O [Testosterone, testosterone]
solubility in vegetable oil [1]: somewhat more soluble in vegetable oil
fraction of circulating plasma testosterone bound to SHBG [2]: Approximately 40%
unbound (free) fraction ([2]; in men): 2%
unbound (free) fraction ([2]; in women): up to 3%

CN(C)CC(=O)O[C@H]1CC[C@H]2[C@@H]3CCC4=CC(=O)CC[C@]4(C)[C@H]3CC[C@]12C [testosterone 17β-N,N-dimethylglycinate]
elimination half-life [3]: about fifty-five
serum levels compared with intravenous administration [3]: equal to intravenous administration
time to peak plasma concentration ([3]; 25 mg dose): twelve
time to peak plasma concentration ([3]; 50 mg dose): twenty

CCC(=O)O[C@H]1CC[C@H]2[C@@H]3CCC4=CC(=O)CC[C@]4(C)[C@H]3CC[C@]12C [testosterone propionate]
time of testosterone and free testosterone peak (female sexual response; single vaginal dose): 5.5 h
sexual arousal (female sexual response): does not trigger sexual arousal

CCCCCCCCCCC(=O)O[C@H]1CC[C@H]2[C@@H]3CCC4=CC(=O)CC[C@]4(C)[C@H]3CC[C@]12C [testosterone undecanoate]
sexual arousal (female sexual response): triggers sexual arousal
